Data: paper PMC7736581, “Activation of the IRE1 RNase through remodeling of the kinase front pocket by ATP-competitive ligands” (Nature Communications, 2020)

How the values were obtained:
Experiment in all cases: biochemical
Design in all cases: Invitrogen kinase panel: Z'Lyte activity (ATP at Km) or LanthaScreen competitive ATP-site binding, percent inhibition
Abl = target: T1, Abl (Homo sapiens, UniProt P00519)
T1 construct: gene ABL1

Fgr = Fgr (Homo sapiens, UniProt P09769)
EphA7 = EphA7 (Homo sapiens, UniProt Q15375)
CDK1/cyclinB = CDK1/cyclinB (Homo sapiens, UniProt P06493)
ROCK1 = ROCK1 (Homo sapiens, UniProt Q13464)
Brk = target: T2, Brk (Homo sapiens, UniProt Q13882)
T2 construct: gene PTK6

Yes = target: T3, Yes (Homo sapiens, UniProt P07947)
T3 construct: gene YES1

Srm = target: T4, Srm (Homo sapiens, UniProt Q9H3Y6)
T4 construct: gene SRMS

CDK2/cyclinA = CDK2/cyclinA (Homo sapiens, UniProt P24941)
FGFR1 = FGFR1 (Homo sapiens, UniProt P11362)
Aurora_B = target: T5, Aurora_B (Homo sapiens, UniProt Q96GD4)
T5 construct: gene AURKB

CHK2 = target: T6, CHK2 (Homo sapiens, UniProt O96017)
T6 construct: gene CHEK2

CHK1 = target: T7, CHK1 (Homo sapiens, UniProt O14757)
T7 construct: gene CHEK1
T7 sequence (O14757 1-476): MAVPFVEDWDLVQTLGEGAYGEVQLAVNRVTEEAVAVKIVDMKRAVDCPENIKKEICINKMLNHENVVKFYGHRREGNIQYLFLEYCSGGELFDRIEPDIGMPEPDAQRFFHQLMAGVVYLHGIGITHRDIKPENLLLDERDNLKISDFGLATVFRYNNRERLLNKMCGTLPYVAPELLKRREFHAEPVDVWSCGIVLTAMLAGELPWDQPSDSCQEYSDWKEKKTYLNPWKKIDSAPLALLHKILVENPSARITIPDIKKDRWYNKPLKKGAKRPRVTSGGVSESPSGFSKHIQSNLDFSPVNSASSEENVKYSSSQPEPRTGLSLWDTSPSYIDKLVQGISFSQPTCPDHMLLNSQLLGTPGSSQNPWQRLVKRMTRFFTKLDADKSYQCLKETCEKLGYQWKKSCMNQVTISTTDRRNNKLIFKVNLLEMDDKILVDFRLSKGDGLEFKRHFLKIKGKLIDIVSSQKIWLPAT

Src = Src (Homo sapiens, UniProt P12931)
MLK1 = target: T8, MLK1 (Homo sapiens, UniProt P80192)
T8 construct: gene MAP3K9

Lyn = Lyn (Homo sapiens, UniProt P07948)

ROCK1, sequence (Q13464 whole entry): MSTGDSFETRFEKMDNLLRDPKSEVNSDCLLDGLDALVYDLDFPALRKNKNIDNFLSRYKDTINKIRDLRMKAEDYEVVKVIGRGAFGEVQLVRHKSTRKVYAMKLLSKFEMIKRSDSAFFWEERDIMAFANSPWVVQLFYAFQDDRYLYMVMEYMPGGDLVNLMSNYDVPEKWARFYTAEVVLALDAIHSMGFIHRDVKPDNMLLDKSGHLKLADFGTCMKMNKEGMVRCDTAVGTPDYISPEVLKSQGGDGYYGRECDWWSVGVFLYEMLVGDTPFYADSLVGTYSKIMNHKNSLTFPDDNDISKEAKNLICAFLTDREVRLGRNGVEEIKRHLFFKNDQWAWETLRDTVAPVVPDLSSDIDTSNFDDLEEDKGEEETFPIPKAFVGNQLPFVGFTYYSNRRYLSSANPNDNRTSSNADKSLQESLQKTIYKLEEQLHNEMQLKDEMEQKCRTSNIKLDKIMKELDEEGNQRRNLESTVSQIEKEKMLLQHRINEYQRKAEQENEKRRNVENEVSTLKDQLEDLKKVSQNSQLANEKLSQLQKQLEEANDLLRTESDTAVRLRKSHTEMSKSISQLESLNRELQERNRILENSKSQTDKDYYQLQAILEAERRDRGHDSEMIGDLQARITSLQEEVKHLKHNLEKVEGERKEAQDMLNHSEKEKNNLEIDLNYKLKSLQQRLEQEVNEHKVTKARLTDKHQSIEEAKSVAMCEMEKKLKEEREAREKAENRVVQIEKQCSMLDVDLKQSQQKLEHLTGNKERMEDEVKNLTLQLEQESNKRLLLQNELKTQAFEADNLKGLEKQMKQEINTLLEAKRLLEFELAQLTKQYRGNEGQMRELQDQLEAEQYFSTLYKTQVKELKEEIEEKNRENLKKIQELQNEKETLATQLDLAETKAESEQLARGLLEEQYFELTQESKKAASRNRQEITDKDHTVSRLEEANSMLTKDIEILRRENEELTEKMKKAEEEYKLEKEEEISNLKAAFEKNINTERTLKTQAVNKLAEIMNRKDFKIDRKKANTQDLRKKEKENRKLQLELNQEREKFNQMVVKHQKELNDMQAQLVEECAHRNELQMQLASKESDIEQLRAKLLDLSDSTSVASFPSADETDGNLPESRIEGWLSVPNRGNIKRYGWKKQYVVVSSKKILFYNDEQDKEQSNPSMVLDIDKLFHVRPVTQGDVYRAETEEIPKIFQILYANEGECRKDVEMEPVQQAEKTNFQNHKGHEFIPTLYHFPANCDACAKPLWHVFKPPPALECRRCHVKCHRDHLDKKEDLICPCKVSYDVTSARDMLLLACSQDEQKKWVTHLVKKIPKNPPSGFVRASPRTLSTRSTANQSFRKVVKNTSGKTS
T1 sequence (P00519 whole entry): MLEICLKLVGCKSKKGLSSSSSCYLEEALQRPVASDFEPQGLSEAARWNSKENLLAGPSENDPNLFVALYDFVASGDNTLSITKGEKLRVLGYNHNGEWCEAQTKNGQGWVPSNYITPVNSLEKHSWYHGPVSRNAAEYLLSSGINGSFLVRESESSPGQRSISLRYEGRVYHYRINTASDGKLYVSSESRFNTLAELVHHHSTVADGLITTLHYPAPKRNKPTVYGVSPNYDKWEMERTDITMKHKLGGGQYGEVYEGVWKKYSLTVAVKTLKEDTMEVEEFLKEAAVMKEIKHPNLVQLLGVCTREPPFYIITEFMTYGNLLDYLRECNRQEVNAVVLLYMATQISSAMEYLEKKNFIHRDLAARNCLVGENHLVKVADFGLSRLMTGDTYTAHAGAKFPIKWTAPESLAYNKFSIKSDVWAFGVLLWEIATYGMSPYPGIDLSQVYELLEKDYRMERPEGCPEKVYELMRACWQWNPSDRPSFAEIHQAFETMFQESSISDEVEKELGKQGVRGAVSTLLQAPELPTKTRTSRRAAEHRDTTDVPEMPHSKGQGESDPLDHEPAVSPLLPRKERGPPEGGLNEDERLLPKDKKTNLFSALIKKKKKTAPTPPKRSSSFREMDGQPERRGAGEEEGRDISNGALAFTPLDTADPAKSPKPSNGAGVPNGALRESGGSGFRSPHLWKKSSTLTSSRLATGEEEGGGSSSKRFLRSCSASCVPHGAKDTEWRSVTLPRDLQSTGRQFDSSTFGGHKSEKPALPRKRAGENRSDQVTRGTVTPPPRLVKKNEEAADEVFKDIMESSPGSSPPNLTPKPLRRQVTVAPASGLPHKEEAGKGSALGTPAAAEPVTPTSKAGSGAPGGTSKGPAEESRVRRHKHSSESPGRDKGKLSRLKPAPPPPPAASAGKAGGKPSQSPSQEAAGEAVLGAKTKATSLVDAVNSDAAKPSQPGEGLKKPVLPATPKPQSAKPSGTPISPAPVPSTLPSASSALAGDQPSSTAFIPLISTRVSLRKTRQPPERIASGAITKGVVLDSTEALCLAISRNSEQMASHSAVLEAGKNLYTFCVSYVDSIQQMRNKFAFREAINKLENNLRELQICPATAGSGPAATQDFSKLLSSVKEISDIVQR
T3 sequence (P07947 whole entry): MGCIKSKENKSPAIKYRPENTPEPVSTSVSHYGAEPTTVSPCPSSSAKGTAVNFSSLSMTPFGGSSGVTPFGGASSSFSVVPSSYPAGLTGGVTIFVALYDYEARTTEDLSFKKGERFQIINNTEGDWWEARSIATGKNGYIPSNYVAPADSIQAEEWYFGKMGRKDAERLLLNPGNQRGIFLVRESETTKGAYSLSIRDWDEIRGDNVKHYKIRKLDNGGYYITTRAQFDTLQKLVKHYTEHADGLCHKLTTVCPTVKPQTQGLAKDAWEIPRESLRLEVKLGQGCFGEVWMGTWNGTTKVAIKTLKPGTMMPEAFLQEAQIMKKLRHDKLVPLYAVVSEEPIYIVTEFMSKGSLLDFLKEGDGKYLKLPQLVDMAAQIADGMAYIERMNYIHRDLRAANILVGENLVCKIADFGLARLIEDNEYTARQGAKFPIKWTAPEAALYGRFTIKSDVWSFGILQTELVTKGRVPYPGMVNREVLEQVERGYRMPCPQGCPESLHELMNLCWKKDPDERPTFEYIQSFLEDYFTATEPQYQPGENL
T8 sequence (P80192 whole entry): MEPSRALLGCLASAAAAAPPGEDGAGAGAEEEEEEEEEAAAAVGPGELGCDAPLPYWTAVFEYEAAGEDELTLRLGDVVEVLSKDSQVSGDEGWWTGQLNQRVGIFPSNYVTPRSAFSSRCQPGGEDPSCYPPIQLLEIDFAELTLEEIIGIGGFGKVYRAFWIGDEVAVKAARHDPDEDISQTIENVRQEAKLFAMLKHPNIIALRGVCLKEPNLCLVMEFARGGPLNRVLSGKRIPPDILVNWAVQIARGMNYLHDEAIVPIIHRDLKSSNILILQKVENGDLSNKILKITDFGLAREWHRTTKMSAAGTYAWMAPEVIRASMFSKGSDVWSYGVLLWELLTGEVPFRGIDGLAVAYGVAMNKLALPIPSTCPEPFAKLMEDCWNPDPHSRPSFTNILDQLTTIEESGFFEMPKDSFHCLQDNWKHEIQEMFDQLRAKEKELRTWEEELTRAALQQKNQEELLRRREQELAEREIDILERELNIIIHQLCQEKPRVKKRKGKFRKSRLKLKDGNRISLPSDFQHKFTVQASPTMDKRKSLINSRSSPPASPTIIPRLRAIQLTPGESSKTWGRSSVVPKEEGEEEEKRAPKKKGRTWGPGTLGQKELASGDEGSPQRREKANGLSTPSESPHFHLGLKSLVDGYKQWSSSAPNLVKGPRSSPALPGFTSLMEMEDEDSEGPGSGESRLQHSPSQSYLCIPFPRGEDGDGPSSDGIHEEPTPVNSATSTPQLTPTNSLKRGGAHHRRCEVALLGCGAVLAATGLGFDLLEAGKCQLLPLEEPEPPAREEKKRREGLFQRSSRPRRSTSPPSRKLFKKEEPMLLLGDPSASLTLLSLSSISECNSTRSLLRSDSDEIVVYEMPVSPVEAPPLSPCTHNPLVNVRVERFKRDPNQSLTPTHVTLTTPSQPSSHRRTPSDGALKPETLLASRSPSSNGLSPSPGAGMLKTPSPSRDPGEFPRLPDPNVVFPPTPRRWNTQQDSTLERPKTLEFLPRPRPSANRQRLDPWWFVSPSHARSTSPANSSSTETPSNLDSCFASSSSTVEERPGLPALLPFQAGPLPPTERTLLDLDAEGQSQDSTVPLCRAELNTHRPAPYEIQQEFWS
T4 sequence (Q9H3Y6 whole entry): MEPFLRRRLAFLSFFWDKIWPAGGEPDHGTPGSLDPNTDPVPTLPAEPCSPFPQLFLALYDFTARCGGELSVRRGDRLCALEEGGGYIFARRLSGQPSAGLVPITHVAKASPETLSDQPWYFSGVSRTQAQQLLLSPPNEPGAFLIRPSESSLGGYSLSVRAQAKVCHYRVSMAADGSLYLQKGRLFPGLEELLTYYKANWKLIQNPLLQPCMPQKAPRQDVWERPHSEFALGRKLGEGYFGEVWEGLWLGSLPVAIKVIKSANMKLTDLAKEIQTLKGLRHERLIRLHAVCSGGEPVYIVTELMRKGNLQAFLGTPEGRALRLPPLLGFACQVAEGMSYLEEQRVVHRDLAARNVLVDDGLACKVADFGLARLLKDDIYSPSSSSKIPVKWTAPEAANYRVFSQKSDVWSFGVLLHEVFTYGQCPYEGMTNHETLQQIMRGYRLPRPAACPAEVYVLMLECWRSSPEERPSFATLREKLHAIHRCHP
T5 sequence (Q96GD4 whole entry): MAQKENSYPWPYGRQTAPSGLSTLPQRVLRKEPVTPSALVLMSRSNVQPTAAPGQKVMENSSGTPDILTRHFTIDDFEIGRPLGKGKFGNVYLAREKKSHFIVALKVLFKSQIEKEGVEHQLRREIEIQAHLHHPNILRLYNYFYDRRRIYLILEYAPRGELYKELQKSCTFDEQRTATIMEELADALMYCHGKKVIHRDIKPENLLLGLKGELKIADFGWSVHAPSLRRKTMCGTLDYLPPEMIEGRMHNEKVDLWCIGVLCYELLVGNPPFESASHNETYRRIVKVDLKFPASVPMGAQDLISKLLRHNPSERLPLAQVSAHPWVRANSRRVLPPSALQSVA

Row | inhibition at 1 µM (Abl) [%] | inhibition at 1 µM (Fgr) [%] | inhibition at 1 µM (EphA7) [%] | inhibition at 1 µM (CDK1/cyclinB) [%] | inhibition at 1 µM (ROCK1) [%] | inhibition at 1 µM (Brk) [%] | inhibition at 1 µM (Yes) [%] | inhibition at 1 µM (Srm) [%] | inhibition at 1 µM (CDK2/cyclinA) [%] | inhibition at 1 µM (FGFR1) [%] | inhibition at 1 µM (Aurora_B) [%] | inhibition at 1 µM (CHK2) [%] | inhibition at 1 µM (CHK1) [%] | inhibition at 1 µM (Src) [%] | inhibition at 1 µM (MLK1) [%] | inhibition at 1 µM (Lyn) [%] | SMILES
1 | -1.5 | 6 | -1 | 7.5 | 0.5 | -9 | 8 | 3 | 6 | 13 | 2 | 8 | 4 | 22.5 | -2.5 | 13 | CC#CC(=O)Nc1cccc2c(Oc3ncccc3-c3ccnc(N[C@H]4CCCNC4)n3)c(C)ccc12 [G-7658]
2 | 94.4 | 77.1 | 84.2 | 96.5 | 94.6 | 26.8 | 52.4 | 67.6 | 100 | 83.8 | 82.2 | 95 | 94.8 | 52.5 | 98.1 | 87.1 | O=c1cc(-c2n[nH]c3ncc(-c4c(F)cccc4F)cc23)nc(N2CCC(O)CC2)[nH]1 [G-9807]

Row | SMILES | inhibition at 1 µM (Abl) [%] | inhibition at 1 µM (Fgr) [%] | inhibition at 1 µM (EphA7) [%] | inhibition at 1 µM (CDK1/cyclinB) [%] | inhibition at 1 µM (ROCK1) [%] | inhibition at 1 µM (Brk) [%] | inhibition at 1 µM (Yes) [%] | inhibition at 1 µM (Srm) [%] | inhibition at 1 µM (CDK2/cyclinA) [%] | inhibition at 1 µM (FGFR1) [%] | inhibition at 1 µM (Aurora_B) [%] | inhibition at 1 µM (CHK2) [%] | inhibition at 1 µM (CHK1) [%] | inhibition at 1 µM (Src) [%] | inhibition at 1 µM (MLK1) [%] | inhibition at 1 µM (Lyn) [%]
3 | CCOC(=O)Nc1cccc2c(Oc3ncccc3-c3ccnc(N[C@H]4CCCNC4)n3)c(C)ccc12 [G-1749] | -7.5 | 1.5 | 9.5 | 6.5 | 3.5 | 1.8 | 7.5 | -4.5 | 6.5 | 14 | 2.5 | 12 | 7.5 | 28 | -8.5 | 6.5
